Values quoted from earlier work, collected in patent US9999602B2, “Liquid menthol compositions” (DDROPS COMPANY, priority 2013, dated 2018).

Settings: FDA review, Federal Register 1987

CC(C)[C@@H]1CC[C@@H](C)C[C@H]1O [menthol, (1R, 2S, 5R)-5-menthol-2-(1-methylethyl)-cyclohexanol]
Dose of menthol required for antitussive (cough-suppressant) effect: at least 5 mg
